Results reported in patent publication US20230240302A1, “Antimicrobial silver coordination complexes” (Penta Science Industries Holding B.V., priority 2020, published 2023).

Columns and labels:
Solubility = assay type: physicochemical
[1] = Photochemical and thermal stability; assay type: physicochemical

Compound | solubility in aqueous solution (Solubility) | photochemical and thermal stability [1]
O=S(=O)([O-])c1ccc2[nH]c([S-])nc2c1.O=S(=O)([O-])c1ccc2[nH]c([S-])nc2c1.[Ag+].[Na+].[Na+].[Na+] [Na^+3[Ag^+(X^2−)2]^3−] | very high solubility | thermally and photochemically stable
O=S(=O)([O-])CCC[S-].O=S(=O)([O-])CCC[S-].[Ag+].[Na+].[Na+].[Na+] [Na^+3[Ag^+(MPS^2−)2]^3−] | very high solubility | 
O=C([O-])c1ccccc1[S-].O=C([O-])c1ccccc1[S-].[Ag+].[Na+].[Na+].[Na+] [Na^+3[Ag^+(TS^2−)2]^3−] | very high solubility | thermally and photochemically stable
